{"source": "patent US20260306421A1", "about": "“SYSTEMS AND METHODS FOR TRANSDERMAN PATCH DELIVERY” (VITAMAX PATCH WHOLESALER LLC, priority 2022, published 2026)", "key": {"[1]": {"test": "Release of cholecalciferol phosphate disodium solutions through synthetic membrane", "assay_type": "in vitro ADME", "experimental": "Preliminary studies were conducted to determine the best synthetic membrane for the patch release using the Franz diffusion cells. Regenerated cellulose (12-14 k molecular weight cut-off Medicell International UK) was compared to nylon (0.20 μm, Whatman, UK) using a range of donor and receiver solutions. The regenerated cellulose membrane was heated to 60° C. for 30 minutes after which the double layer of polymer (it is supplied as a dialysis membrane) was separated and mounted onto the Franz cell (FIG. 3) by sealing between the two compartments using parafilm, and 12 mm magnetic stirrers were placed into the receiver compartment. The receiver compartment was filled with either 50:50 PG:mobile phase (90:10 methanol:water pH 3.2), or 80:20 PG:distilled water, or 75 mM pH 7 saline. The cell sealing was confirmed by cell inversion and monitoring solvent back diffusion. […] The temperature of the Franz diffusion was maintained at 37° C. in a water bath, to set up the membrane temperature to 32° C. […] The 1 ml receiver fluid samples were collected and analysed by HPLC methods at different time intervals. […]"}, "[2]": {"test": "Solubility of cholecalciferol and cholecalciferol phosphate (disodium, acid)", "assay_type": "physicochemical", "experimental": "Aliquots of cholecalciferol, cholecalciferol phosphate disodium, and cholecalciferol phosphate acid were added to a range of solvents including propylene glycol (PG), distilled water, methanol, ethyl acetate, ethanol, n-hexane, and the visual solubility was determined. A precise assessment of the saturation solubility was for some of the solvent systems was made using high-performance liquid chromatography (HPLC). In the HPLC solubility studies, an excess of each solute was added into 2 mL of each test solvent. The solutions were left stirring overnight at room temperature, (RT), 22° C. The saturation of the solutions was confirmed by the visual appearance of crystals and the drug suspensions were filtered through 0.2 μm cellulose acetate syringe filters, diluted with excess of mobile phase, and the solute concentration of each sample was assessed using HPLC."}, "[3]": {"test": "Cholecalciferol phosphate adhesive suitability / compatibility screen", "assay_type": "physicochemical", "experimental": "Pre-formulation studies were performed to determine the compatibility of cholecalciferol phosphate (disodium and acid forms) with a range of adhesives (Table 38) that could be used to manufacture of the patch. The compatibility of the drugs with the patch excipients was assessed through checking the clarity of the mixture.\nThe compatibility of the adhesive with solvents and drug was established. The maximum drug loading in the adhesive following solvent evaporation was determined by mixing the drug, adhesive and co-solvents until a clear solution is obtained at different drug:adhesive ratios by placing a drop of solution onto patch backing sheet, leaving the slide to dry for 3-4 hours and examining the formed fil on the surface of the backings for evidence of drug crystals were assessed using KKmoon digital magnifier with LED light (China). Following patch optimization, the drug-adhesive solution was cast as 10×10 cm squares using of backing (3M™ Scotchpak™ Polyester Backing Film Laminate 9730). A sufficient volume of the adhesive was applied to achieve a target coating of 8 mg/cm^2. Following complete drying of the solvents, the adhesive layer was covered by M3 Release liner (SCOTCHPAK 9755), compressed, and then cut using 34 mm circular manual die cutter (SCP Super Cutting Press)."}, "[4]": {"test": "Franz cell porcine skin permeation and deposition of cholecalciferol and cholecalciferol phosphate disodium from PG solutions", "assay_type": "in vitro ADME", "experimental": "In order to assess the effect of adding phosphate to vitamin D chemical structure on the penetration of vitamin D through the skin porcine skin permeation studies were performed. Using the data from the pre-formulation studies solutions of cholecalciferol and cholecalciferol phosphate disodium, were prepared. […] The developed HPLC methods were used for quantification.\nTo study if the addition of the phosphate to cholecalciferol facilitated enhanced transdermal permeation, donor solutions were prepared by adding 2.5 mg/mL of cholecalciferol or cholecalciferol phosphate disodium in 100% PG. […] After 24 h, the receiver fluid was collected and analysed by HPLC methods. […]\nFollowing homogenising solution with epidermis and dermis for 1 min by Ultra Turrax, solutions were filtered through 0.2 μm syringe filters of each bottle was collected and analysed by the HPLC method. The amount of cholecalciferol and cholecalciferol phosphate disodium on the surface of the skin, deposited in the SC, epidermis, dermis, and passed into the receiver fluid was determined. The percentage of mass recovery per cm^2 of skin was calculated, and the drug deposition profile could be obtained."}}, "data": [{"substance": "cholecalciferol phosphate disodium", "values": [{"measurement": "release through regenerated cellulose membrane", "setting": "[1]; PG donor, 50:50 PG:MP (90:10 methanol:water pH 3.2) receiver", "result": "22.0±4.6", "unit": "%"}, {"measurement": "release through regenerated cellulose membrane", "setting": "[1]; saline donor, saline receiver", "result": "3.0±0.7", "unit": "%"}, {"measurement": "Solubility", "setting": "[2]; solvent PG", "result": "2670 ± 310", "unit": "µg/mL"}, {"measurement": "Solubility", "setting": "[2]; solvent PG + 5% ethanol", "result": "340 ± 610", "unit": "µg/mL"}, {"measurement": "compatibility with DURO-TAK 87-2516", "setting": "[3]", "result": "compatible"}, {"measurement": "compatibility with DURO-TAK 87-9301", "setting": "[3]", "result": "did not show compatibility"}, {"measurement": "miscibility with Oppanol B12 and Oppanol N100", "setting": "[3]", "result": "did not show acceptable miscibility"}, {"measurement": "highest active loading without any crystallization", "setting": "[3]; DURO-TAK 87-2516", "result": 0.6, "unit": "mg/mL"}, {"measurement": "Solubility", "setting": "[3]; DURO-TAK 87-2516 93.2 μL, 10% w/v drug, 1.4 mL methanol, 2.75 mL ethyl acetate, 2 μL PG, 150 μL water", "result": "Clear"}, {"measurement": "Solubility", "setting": "[3]; DURO-TAK 87-2516 100 μL, 10% w/v drug, 0.5 mL methanol, 0.5-1.5 mL ethyl acetate, 2 μL PG, no water", "result": "Not clear"}, {"measurement": "Solubility", "setting": "[3]; DURO-TAK 87-2516 180 μL, 5% drug, 1.4 mL methanol, 2.5 mL ethyl acetate, 4 μL PG, 150 μL water", "result": "Clear"}, {"measurement": "Solubility", "setting": "[3]; DURO-TAK 87-2516 200 μL, 3% drug, 0.9 mL methanol, 2 mL ethyl acetate, 40 μL PG, 100 μL water", "result": "Clear"}, {"measurement": "Solubility", "setting": "[3]; DURO-TAK 87-9301 suitability screen, 4 mg drug, 0.2 mL adhesive, 1-4 mL ethyl acetate, 60 μL PG", "result": "Opaque"}, {"measurement": "Solubility", "setting": "[3]; DURO-TAK 87-9301 suitability screen, 4 mg drug, no adhesive, 4 mL methanol, 40 μL PG", "result": "Clear"}, {"measurement": "deposition compared with cholecalciferol in each skin layer", "setting": "[4]; p<0.05, ANOVA", "result": "significantly higher"}, {"measurement": "vitamin D delivered into the skin compared to cholecalciferol", "setting": "[4]; propylene glycol solution", "result": 5, "unit": "times"}]}]}
